The source of these data is patent publication US20230113037A1 (Bayer Aktiengesellschaft, priority 2019, published 2023).

Assay [1] has as its target T1, AHR (Homo sapiens, UniProt P35869).
T1 construct: U87 MG glioblastoma cells (ATCC #HTB-14) endogenously expressing AHR; endogenous in cells; host or cells: U87 MG glioblastoma cells (ATCC #HTB-14)
T1 sequence (P35869 11-848): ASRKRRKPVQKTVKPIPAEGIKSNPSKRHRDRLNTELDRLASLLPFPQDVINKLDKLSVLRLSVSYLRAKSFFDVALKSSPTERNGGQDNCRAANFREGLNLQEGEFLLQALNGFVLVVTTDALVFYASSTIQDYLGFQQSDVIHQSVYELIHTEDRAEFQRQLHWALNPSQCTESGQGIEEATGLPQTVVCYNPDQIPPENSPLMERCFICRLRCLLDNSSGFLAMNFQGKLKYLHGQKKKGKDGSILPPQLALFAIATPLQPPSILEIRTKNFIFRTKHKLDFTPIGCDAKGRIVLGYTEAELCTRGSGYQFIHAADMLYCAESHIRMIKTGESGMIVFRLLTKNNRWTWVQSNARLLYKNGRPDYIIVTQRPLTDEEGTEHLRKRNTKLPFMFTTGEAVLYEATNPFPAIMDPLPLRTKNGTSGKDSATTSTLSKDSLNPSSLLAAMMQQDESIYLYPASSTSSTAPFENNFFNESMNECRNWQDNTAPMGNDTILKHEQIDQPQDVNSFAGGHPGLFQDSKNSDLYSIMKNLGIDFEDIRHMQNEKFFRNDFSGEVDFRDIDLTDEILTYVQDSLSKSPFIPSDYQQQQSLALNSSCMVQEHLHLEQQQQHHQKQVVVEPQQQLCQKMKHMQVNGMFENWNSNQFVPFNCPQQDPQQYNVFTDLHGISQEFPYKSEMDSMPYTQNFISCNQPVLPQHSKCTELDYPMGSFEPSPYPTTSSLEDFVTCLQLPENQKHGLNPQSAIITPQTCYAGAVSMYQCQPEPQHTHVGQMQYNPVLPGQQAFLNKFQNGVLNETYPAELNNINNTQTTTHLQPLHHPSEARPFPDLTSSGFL
Description: In vitro assay 1: antagonism in human cell line (AHR transactivation, firefly luciferase reporter, kynurenic acid prestimulated). In kind it is cell-based. The following applies: AHR Antagonism Human IC50 [M], firefly luciferase reporter. In outline: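 U87 MG glioblastoma cells with endogenous AHR, stably carrying a DRE-driven firefly luciferase reporter and constitutive Renilla reporter, prestimulated with kynurenic acid before compound addition. Firefly and Renilla read by dual luciferase; Renilla flags toxicity; normalized to controls (150 μM kynurenic acid + 5 μM staurosporine as full inhibition); repeat values averaged or median.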
In general terms: Reporter assays use an easily measured gene product as a stand-in for the process of interest.

The target in assay [2] is T2, AHR (Mus musculus, UniProt P30561).
T2 sequence (P30561 1-848 P471L/N533S/M589L): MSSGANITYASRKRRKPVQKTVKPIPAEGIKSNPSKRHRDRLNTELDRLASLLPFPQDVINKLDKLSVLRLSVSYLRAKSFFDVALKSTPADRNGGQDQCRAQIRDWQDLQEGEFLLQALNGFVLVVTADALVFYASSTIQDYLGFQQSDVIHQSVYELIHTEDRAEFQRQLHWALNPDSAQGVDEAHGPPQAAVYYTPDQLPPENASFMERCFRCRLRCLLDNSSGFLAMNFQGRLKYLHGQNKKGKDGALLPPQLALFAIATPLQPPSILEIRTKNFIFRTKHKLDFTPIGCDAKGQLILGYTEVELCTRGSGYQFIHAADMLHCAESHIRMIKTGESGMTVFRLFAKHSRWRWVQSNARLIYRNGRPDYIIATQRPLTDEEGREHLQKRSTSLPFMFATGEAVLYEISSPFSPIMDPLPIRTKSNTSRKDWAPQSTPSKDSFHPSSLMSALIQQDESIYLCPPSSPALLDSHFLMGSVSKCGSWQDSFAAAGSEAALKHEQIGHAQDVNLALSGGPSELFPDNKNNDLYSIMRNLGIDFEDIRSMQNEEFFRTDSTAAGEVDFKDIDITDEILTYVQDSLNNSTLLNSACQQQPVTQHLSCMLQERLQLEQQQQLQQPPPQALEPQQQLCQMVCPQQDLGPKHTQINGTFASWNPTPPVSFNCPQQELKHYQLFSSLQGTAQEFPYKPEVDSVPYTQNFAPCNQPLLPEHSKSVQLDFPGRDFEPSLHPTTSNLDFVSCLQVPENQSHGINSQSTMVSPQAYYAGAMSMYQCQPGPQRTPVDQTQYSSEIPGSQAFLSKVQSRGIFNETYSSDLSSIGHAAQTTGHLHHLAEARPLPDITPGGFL
Description: In vitro assay 3: antagonism in mouse cell line (AHR transactivation, firefly luciferase reporter, kynurenic acid prestimulated). In kind it is cell-based. In outline: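 Mouse cells stably carrying a DRE-driven AHR-inducible firefly luciferase reporter were prestimulated with the endogenous agonist kynurenic acid before compound addition. Luciferase read by SteadyGlo; cells without kynurenic acid served as full-inhibition control, with normalization to positive and negative controls. Repeat tests reported as mean or median.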

Where [3] appears, read: Hepa 1c1c7 cells, 200 μM kynurenic acid, 20 hours, firefly luciferase reporter, read-out: AHR Antagonism Mouse IC50.
[4] abbreviates: read-out: AHR Antagonism Mouse IC50, Hepa 1c1c7 cells, 200 μM kynurenic acid, 20 hours, firefly luciferase reporter.

Where two headings read alike, the source gives them in different places.

Consider `COc1ccc(-c2nc3c4cccc(Br)c4nc(N[C@H](C)C(=O)N4CCO[C@H](C)C4)n3n2)cc1` [Example 907, (2R)-2-{[7-bromo-2-(4-methoxyphenyl)[1,2,4]triazolo[1,5-c]quinazolin-5-yl]amino}-1-[(2R)-2-methylmorpholin-4-yl]propan-1-one], for which the IC50 (usually the concentration needed to halve the response being measured) on AHR [1] amounted to 9.93e-10 M; at AHR [2] (setting [3]) it was 1.39 nM.
On the same counts, the results for `C[C@H]1CN(C(=O)[C@@H](C)Nc2nc3c(Br)cccc3c3nc(-c4cnn(C)c4)nn23)CCO1` [Example 908, (2R)-2-{[7-bromo-2-(1-methyl-1H-pyrazol-4-yl)[1,2,4]triazolo[1,5-c]quinazolin-5-yl]amino}-1-[(2S)-2-methylmorpholin-4-yl]propan-1-one] are 2.87e-08 M and 18.8 nM.
Turning to `COc1ccc(-c2nc3c4cccc(Br)c4nc(N[C@H](C)C(=O)N4CCO[C@@H](C)C4)n3n2)cc1` [Example 909, (2R)-2-{[7-bromo-2-(4-methoxyphenyl)[1,2,4]triazolo[1,5-c]quinazolin-5-yl]amino}-1-[(2S)-2-methylmorpholin-4-yl]propan-1-one], the IC50 on AHR [1] came out at 2.36e-09 M; at AHR [2] (setting [3]), 1.68 nM.
On the same counts, the results for `C[C@@H]1CN(C(=O)[C@@H](C)Nc2nc3c(Br)cccc3c3nc(-c4cnn(C)c4)nn23)CCN1C` [Example 910, (2R)-2-{[7-bromo-2-(1-methyl-1H-pyrazol-4-yl)[1,2,4]triazolo[1,5-c]quinazolin-5-yl]amino}-1-[(3R)-3,4-dimethylpiperazin-1-yl]propan-1-one] are 2.4e-08 M and 24.7 nM.
On to `COc1ccc(-c2nc3c4cccc(Br)c4nc(N[C@H](C)C(=O)N4CCOC[C@H]4C)n3n2)cc1` [Example 911, (2R)-2-{[7-bromo-2-(4-methoxyphenyl)[1,2,4]triazolo[1,5-c]quinazolin-5-yl]amino}-1-[(3R)-3-methylmorpholin-4-yl]propan-1-one], for which the results for the concentration for half-maximal inhibition (IC50) against AHR [1] and on AHR [2] (setting [4]) were 1.57e-09 M and 1.98 nM, respectively.
For the compound `C[C@@H]1COCCN1C(=O)[C@@H](C)Nc1nc2c(Br)cccc2c2nc(-c3cnn(C)c3)nn12` [Example 912, (2R)-2-{[7-bromo-2-(1-methyl-1H-pyrazol-4-yl)[1,2,4]triazolo[1,5-c]quinazolin-5-yl]amino}-1-[(3R)-3-methylmorpholin-4-yl]propan-1-one], the values for the IC50 against AHR [1] and at AHR [2] (setting [3]) were 2.16e-08 M and 13.7 nM, respectively.
On the same counts, the results for `COc1ccc(-c2nc3c4cccc(Br)c4nc(N[C@H](C)C(=O)N4CCN(C)[C@H](C)C4)n3n2)cc1` [Example 913, (2R)-2-{[7-bromo-2-(4-methoxyphenyl)[1,2,4]triazolo[1,5-c]quinazolin-5-yl]amino}-1-[(3R)-3,4-dimethylpiperazin-1-yl]propan-1-one] are 1.32e-09 M and 1.71 nM.
On the same counts, the results for `COc1ccc(-c2nc3c4cccc(Br)c4nc(N[C@H](C)C(=O)N4C[C@@H]5C[C@H]4CO5)n3n2)cc1` [Example 914, (2R)-2-{[7-bromo-2-(4-methoxyphenyl)[1,2,4]triazolo[1,5-c]quinazolin-5-yl]amino}-1-[(1S,4S)-2-oxa-5-azabicyclo[2.2.1]heptan-5-yl]propan-1-one] are 8.96e-10 M and 1.36 nM.
On the same counts, the results for `C[C@@H](Nc1nc2c(Br)cccc2c2nc(-c3cnn(C)c3)nn12)C(=O)N1C[C@@H]2C[C@H]1CO2` [Example 915, (2R)-2-{[7-bromo-2-(1-methyl-1H-pyrazol-4-yl)[1,2,4]triaozlo[1,5-c]quinazolin-5-yl]amino}-1-[(1S,4S)-2-oxa-5-azabicyclo[2.2.1]heptna-5-yl]propan-1-one] are 1.74e-08 M and 18.7 nM.
For the compound `COc1ccc(-c2nc3c4cccc(Br)c4nc(N[C@H](C)C(=O)N4CC5(COC5)C4)n3n2)cc1` [Example 916, (2R)-2-{[7-bromo-2-(4-methoxyphenyl)[1,2,4]triazolo[1,5-c]quinazolin-5-yl]amino}-1-(2-oxa-6-azaspiro[3.3]heptan-6-yl)propan-1-one], the IC50 on AHR [1] came to 1.06e-09 M; on AHR [2] (setting [4]) it was 2.22 nM.
On the same counts, the results for `C[C@@H](Nc1nc2c(Br)cccc2c2nc(-c3cnn(C)c3)nn12)C(=O)N1CC2(COC2)C1` [Example 917, (2R)-2-{[7-bromo-2-(1-methyl-1H-pyrazol-4-yl)[1,2,4]triazolo[1,5-c]quinazolin-5-yl]amino}-1-(2-oxa-6-azaspiro[3.3]heptan-6-yl)propan-1-one] are 3.76e-08 M and 65.6 nM.
In the case of `COc1ccc(-c2nc3c4cccc(Br)c4nc(N[C@H](C)C(=O)N4CC5(CN(C)C5)C4)n3n2)cc1` [Example 918, (2R)-2-{[7-bromo-2-(4-methoxyphenyl)[1,2,4]triazolo[1,5-c]quinazolin-5-yl]amino}-1-(6-methyl-2,6-diazaspiro[3.3]heptan-2-yl)propan-1-one], the 50% inhibitory concentration (IC50) against AHR [1] is 3.07e-08 M; on AHR [2] (setting [3]), 31.9 nM.
The matching figures for `C[C@@H](Nc1nc2c(Br)cccc2c2nc(-c3cnn(C)c3)nn12)C(=O)N1CC2(CN(C)C2)C1` [Example 919, (2R)-2-{[7-bromo-2-(1-methyl-1H-pyrazol-4-yl)[1,2,4]triazolo[1,5-c]quinazolin-5-yl]amino}-1-(6-methyl-2,6-diazaspiro[3.3]heptan-2-yl)propan-1-one]: 1.18e-06 M and 613 nM.
On the same counts, the results for `COc1ccc(-c2nc3c4cccc(Br)c4nc(N[C@H](C)C(=O)N4CC5(CN(C(=O)OC(C)(C)C)C5)C4)n3n2)cc1` [Example 920, tert-butyl 6-{N-[7-bromo-2-(4-methoxyphenyl)[1,2,4]triazolo[1,5-c]quinazolin-5-yl]-D-alanyl}-2,6-diazaspiro[3.3]heptane-2-carboxylate] are 7.45e-09 M and 11 nM.
Turning to `C[C@@H](Nc1nc2c(Br)cccc2c2nc(-c3cnn(C)c3)nn12)C(=O)N1CC2(CN(C(=O)OC(C)(C)C)C2)C1` [Example 921, tert-butyl 6-{N-[7-bromo-2-(1-methyl-1H-pyrazol-4-yl)[1,2,4]triazolo[1,5-c]quinazolin-5-yl]-D-alanyl}-2,6-diazaspiro[3.3]heptane-2-carboxylate], the 50% inhibitory concentration (IC50) worked out at 4.24e-08 M against AHR [1] and 98.3 nM at AHR [2] (setting [3]).
The matching figures for `COc1ccc(-c2nc3c4cccc(Br)c4nc(N[C@@H](C(=O)N4CCN(C)CC4)C(C)C)n3n2)cc1` [Example 922, (2R)-2-{[7-bromo-2-(4-methoxyphenyl)[1,2,4]triazolo[1,5-c]quinazolin-5-yl]amino}-3-methyl-1-(4-methylpiperazin-1-yl)butan-1-one]: 2.47e-09 M and 2.03 nM.
`COCCNC(=O)[C@H](Nc1nc2c(Br)cccc2c2nc(-c3ccc(OC)cc3)nn12)C(C)C` [Example 923, N^2-[7-bromo-2-(4-methoxyphenyl)[1,2,4]triazolo[1,5-c]quinazolin-5-yl]-N-(2-methoxyethyl)-D-valinamide]: the IC50 against AHR [1] was 3.26e-09 M; at AHR [2] (setting [3]), 2.13 nM.
